Read-outs that look alike come from different tables or passages of the source.
Columns and labels:
[1] = target: CDK1/Cyclin E1 (Homo sapiens, UniProt P06493); assay: NanoBRET live-cell target engagement, CDK1-NanoLuc/Cyclin E1 in HEK-293; assay type: binding; conditions: CDK1/E1, read-out: Inhibition at 10µM (%)
[2] = target: CDK20/Cyclin H (Homo sapiens, UniProt Q8IZL9); assay: NanoBRET live-cell target engagement, NanoLuc-CDK20/Cyclin H in HEK-293; assay type: binding; conditions: CDK20/H, read-out: Inhibition at 10µM (%)
[3] = target: CDK5/CDK5R1 (Homo sapiens, UniProt Q00535); assay: NanoBRET live-cell target engagement, CDK5-NanoLuc/CDK5R1 in HEK-293; assay type: binding; conditions: CDK5/CDK5R1, read-out: Inhibition at 10µM (%)
[4] = target: CDK16/Cyclin Y (Homo sapiens, UniProt Q00536); assay: NanoBRET live-cell target engagement, CDK16-NanoLuc/Cyclin Y in HEK-293; assay type: binding; conditions: CDK16/Y; for IC50: read-out: IC50; for inhibition at 10 µM: read-out: Inhibition at 10µM (%)
[5] = target: CDK6/Cyclin D1 (Homo sapiens, UniProt Q00534); assay: NanoBRET live-cell target engagement, NanoLuc-CDK6/Cyclin D1 in HEK-293; assay type: binding; conditions: CDK6/D1, read-out: Inhibition at 10µM (%)
[6] = target: CDK18/Cyclin Y (Homo sapiens, UniProt Q07002); assay: NanoBRET live-cell target engagement, CDK18-NanoLuc/Cyclin Y in HEK-293; assay type: binding; conditions: CDK18/Y; for IC50: read-out: IC50; for inhibition at 10 µM: read-out: Inhibition at 10µM (%)
[7] = target: CDK15/Cyclin Y (Homo sapiens, UniProt Q96Q40); assay: NanoBRET live-cell target engagement, NanoLuc-CDK15/Cyclin Y in HEK-293; assay type: binding; conditions: CDK15/Y, read-out: Inhibition at 10µM (%)
[8] = target: CDK13/Cyclin K (Homo sapiens, UniProt Q14004); assay: NanoBRET live-cell target engagement, CDK13-NanoLuc/Cyclin K in HEK-293; assay type: binding; conditions: CDK13/K, read-out: Inhibition at 10µM (%)
[9] = target: CDK10/Cyclin L2 (Homo sapiens, UniProt Q15131); assay: NanoBRET live-cell target engagement, CDK10-NanoLuc/Cyclin L2 in HEK-293; conditions: for IC50: IC50 (nM), CDK10/L2; for inhibition at 10 µM: read-out: Inhibition at 10µM (%), CDK10/L2
[10] = target: CDK17/Cyclin Y (Homo sapiens, UniProt Q00537); assay: NanoBRET live-cell target engagement, CDK17-NanoLuc/Cyclin Y in HEK-293; assay type: binding; conditions: CDK17/Y; for IC50: read-out: IC50; for inhibition at 10 µM: read-out: Inhibition at 10µM (%)
[11] = target: CDK8/Cyclin C (Homo sapiens, UniProt P49336); assay: NanoBRET live-cell target engagement, NanoLuc-CDK8/Cyclin C in HEK-293; assay type: binding; conditions: for inhibition at 10 µM: read-out: Inhibition at 10µM (%)
[12] = target: CDK11B/Cyclin L2 (Homo sapiens, UniProt P21127); assay: NanoBRET live-cell target engagement, CDK11B-NanoLuc/Cyclin L2 in HEK-293; assay type: binding; conditions: CDK11b/L2, read-out: Inhibition at 10µM (%)
[13] = target: CDK19/Cyclin C (Homo sapiens, UniProt Q9BWU1); assay: NanoBRET live-cell target engagement, NanoLuc-CDK19/Cyclin C in HEK-293; conditions: for inhibition at 10 µM: read-out: Inhibition at 10µM (%), CDK19/C
[14] = target: CDK9/Cyclin K (Homo sapiens, UniProt P50750); assay: NanoBRET live-cell target engagement, NanoLuc-CDK9/Cyclin K in HEK-293; assay type: binding; conditions: CDK9/K, read-out: Inhibition at 10µM (%)
[15] = target: CDK12/Cyclin K (Homo sapiens, UniProt Q9NYV4); assay: NanoBRET live-cell target engagement, CDK12-NanoLuc/Cyclin K in HEK-293; assay type: binding; conditions: CDK12/K, read-out: Inhibition at 10µM (%)
[16] = target: T1, CDK11A/Cyclin L2 (Homo sapiens, UniProt Q9UQ88); assay: NanoBRET live-cell target engagement, CDK11A-NanoLuc/Cyclin L2 in HEK-293; assay type: binding; conditions: CDK11a/L2, read-out: Inhibition at 10µM (%)
T1 sequence (Q9UQ88 1-783): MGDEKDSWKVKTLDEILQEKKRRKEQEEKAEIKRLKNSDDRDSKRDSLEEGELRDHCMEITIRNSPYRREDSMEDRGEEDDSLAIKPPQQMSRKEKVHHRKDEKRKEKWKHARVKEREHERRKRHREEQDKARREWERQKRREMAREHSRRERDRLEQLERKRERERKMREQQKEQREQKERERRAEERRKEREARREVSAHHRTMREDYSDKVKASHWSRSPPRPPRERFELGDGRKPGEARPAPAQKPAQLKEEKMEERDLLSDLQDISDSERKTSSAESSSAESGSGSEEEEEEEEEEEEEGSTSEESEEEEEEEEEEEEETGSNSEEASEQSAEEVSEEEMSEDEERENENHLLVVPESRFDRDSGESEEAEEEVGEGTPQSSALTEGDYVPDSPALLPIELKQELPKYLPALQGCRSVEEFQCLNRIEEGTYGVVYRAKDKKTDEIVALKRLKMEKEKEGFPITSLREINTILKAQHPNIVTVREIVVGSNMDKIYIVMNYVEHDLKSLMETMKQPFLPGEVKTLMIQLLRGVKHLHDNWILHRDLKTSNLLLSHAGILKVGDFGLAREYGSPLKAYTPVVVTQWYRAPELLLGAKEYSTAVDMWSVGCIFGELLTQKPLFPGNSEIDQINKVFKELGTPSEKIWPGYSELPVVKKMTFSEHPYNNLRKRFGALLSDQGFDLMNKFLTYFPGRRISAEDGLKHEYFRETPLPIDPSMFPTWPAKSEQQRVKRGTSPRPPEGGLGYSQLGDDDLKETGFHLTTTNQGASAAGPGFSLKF

[17] = target: CDK4/Cyclin D1 (Homo sapiens, UniProt P11802); assay: NanoBRET live-cell target engagement, NanoLuc-CDK4/Cyclin D1 in HEK-293; assay type: binding; conditions: CDK4/D1, read-out: Inhibition at 10µM (%)

CDK18/Cyclin Y, sequence (Q07002 whole entry): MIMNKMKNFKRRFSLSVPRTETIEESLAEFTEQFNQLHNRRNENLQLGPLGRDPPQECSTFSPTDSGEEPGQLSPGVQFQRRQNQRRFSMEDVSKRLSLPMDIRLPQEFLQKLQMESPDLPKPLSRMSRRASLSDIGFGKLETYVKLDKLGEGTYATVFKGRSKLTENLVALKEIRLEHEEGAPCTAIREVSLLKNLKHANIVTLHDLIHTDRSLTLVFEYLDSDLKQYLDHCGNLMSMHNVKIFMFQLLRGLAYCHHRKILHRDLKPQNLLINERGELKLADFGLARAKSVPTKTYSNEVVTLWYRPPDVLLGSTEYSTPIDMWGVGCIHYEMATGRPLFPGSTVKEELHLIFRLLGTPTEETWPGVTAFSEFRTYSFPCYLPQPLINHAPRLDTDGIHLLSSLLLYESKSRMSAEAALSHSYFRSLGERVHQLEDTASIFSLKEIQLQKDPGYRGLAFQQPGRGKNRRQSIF
CDK18/Cyclin Y, sequence (Q8ND76 whole entry partner): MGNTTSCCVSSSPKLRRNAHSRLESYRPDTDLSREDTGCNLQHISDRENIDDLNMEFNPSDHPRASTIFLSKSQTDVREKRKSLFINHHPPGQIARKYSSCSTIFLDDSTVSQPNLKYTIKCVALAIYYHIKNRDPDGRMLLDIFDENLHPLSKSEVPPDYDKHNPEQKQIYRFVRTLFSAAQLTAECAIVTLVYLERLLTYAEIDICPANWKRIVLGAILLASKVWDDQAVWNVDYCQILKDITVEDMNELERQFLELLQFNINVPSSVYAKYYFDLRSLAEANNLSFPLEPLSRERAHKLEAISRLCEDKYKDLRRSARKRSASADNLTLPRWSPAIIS
CDK6/Cyclin D1, sequence (Q00534 whole entry): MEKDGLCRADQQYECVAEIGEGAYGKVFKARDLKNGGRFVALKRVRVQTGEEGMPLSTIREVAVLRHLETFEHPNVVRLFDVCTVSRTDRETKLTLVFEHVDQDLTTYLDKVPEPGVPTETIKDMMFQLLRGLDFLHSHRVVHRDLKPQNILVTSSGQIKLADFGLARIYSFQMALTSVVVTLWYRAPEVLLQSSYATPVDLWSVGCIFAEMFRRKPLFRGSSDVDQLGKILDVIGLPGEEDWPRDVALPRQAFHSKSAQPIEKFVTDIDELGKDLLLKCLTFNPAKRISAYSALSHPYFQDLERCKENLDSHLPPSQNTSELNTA
CDK6/Cyclin D1, sequence (P24385 whole entry partner): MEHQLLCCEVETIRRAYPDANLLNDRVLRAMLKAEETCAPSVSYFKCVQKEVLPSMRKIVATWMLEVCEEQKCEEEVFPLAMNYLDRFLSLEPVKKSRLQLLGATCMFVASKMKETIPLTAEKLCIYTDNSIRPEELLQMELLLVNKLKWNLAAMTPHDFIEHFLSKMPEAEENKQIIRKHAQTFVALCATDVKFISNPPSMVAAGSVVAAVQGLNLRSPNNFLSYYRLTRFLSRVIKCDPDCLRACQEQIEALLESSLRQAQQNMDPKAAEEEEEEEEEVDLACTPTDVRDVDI
CDK8/Cyclin C, sequence (P49336 whole entry): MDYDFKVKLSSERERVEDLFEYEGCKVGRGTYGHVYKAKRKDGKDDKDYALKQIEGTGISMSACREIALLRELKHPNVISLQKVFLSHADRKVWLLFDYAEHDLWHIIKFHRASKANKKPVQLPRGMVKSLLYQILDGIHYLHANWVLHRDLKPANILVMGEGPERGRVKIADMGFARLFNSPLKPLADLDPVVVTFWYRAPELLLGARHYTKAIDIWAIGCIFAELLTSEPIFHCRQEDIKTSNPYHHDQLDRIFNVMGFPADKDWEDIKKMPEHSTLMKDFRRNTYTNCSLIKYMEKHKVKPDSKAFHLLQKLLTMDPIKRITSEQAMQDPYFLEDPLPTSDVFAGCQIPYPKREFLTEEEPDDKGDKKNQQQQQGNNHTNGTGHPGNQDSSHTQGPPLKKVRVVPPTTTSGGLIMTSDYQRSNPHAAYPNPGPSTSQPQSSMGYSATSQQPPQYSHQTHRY
CDK8/Cyclin C, sequence (P24863 whole entry partner): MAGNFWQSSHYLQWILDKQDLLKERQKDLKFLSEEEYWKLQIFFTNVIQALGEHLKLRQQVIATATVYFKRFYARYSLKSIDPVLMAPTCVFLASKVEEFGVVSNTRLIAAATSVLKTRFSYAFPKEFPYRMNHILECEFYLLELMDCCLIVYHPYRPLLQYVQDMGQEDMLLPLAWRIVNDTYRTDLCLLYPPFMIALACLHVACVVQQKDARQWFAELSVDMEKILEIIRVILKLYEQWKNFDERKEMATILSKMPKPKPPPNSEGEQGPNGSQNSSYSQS
CDK12/Cyclin K, sequence (Q9NYV4 1-1481 isoform Q9NYV4-2): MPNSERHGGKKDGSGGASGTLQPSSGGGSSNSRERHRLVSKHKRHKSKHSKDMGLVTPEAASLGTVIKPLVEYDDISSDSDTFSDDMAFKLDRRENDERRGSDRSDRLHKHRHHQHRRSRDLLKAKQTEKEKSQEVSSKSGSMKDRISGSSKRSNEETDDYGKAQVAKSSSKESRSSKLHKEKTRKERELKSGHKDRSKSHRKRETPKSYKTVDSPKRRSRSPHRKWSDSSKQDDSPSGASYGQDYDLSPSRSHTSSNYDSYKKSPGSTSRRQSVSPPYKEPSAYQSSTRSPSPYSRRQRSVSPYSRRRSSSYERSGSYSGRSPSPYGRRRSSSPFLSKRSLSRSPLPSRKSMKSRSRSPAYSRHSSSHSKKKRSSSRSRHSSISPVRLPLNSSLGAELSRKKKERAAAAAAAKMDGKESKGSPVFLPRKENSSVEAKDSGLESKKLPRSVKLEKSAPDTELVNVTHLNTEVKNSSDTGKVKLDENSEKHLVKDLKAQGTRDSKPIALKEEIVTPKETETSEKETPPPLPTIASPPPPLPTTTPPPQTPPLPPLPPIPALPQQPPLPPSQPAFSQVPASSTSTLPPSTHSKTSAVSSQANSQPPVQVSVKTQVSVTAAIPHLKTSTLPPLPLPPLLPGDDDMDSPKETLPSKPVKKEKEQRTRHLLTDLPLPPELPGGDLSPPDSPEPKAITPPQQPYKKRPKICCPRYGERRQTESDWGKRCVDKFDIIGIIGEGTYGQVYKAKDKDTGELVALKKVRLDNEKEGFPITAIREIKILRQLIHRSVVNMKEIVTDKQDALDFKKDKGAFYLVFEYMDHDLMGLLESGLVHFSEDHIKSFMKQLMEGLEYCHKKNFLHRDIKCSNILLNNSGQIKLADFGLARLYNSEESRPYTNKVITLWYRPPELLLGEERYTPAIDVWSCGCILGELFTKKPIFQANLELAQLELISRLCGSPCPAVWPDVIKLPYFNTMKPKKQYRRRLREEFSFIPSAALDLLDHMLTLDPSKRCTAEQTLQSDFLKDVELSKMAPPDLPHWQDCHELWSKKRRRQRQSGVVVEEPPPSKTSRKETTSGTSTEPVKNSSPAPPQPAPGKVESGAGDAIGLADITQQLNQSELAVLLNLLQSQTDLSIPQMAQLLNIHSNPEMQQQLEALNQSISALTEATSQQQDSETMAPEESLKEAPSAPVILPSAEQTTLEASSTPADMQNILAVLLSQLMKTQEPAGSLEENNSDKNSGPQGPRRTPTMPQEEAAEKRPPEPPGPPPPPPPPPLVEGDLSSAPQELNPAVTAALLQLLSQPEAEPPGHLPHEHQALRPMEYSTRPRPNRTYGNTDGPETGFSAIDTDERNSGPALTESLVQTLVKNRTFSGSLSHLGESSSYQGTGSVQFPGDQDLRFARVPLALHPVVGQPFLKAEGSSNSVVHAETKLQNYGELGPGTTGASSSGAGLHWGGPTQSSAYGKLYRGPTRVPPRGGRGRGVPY
CDK12/Cyclin K, sequence (O75909 whole entry partner): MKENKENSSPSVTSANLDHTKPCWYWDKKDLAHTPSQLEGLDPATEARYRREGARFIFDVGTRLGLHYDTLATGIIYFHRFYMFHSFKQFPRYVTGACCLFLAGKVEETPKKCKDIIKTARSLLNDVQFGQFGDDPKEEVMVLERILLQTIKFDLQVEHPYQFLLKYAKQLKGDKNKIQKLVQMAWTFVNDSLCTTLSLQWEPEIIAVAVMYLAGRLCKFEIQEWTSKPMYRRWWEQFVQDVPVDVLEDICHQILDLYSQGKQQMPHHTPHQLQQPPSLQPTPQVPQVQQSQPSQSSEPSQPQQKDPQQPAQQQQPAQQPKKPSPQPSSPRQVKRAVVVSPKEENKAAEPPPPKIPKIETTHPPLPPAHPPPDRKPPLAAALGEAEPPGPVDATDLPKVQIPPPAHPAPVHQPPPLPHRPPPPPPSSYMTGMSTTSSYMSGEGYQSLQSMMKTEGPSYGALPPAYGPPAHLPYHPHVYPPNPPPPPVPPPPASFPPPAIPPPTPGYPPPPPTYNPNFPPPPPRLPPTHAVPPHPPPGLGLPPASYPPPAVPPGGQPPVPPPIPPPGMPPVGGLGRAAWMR
CDK1/Cyclin E1, sequence (P06493 whole entry): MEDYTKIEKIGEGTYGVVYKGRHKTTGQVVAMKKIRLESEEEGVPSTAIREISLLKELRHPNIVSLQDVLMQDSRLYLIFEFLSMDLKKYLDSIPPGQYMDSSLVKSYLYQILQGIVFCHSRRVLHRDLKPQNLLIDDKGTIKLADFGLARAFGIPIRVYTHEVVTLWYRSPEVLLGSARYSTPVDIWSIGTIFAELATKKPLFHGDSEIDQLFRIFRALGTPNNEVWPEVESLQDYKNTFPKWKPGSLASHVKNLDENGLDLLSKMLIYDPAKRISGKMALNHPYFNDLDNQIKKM
CDK1/Cyclin E1, sequence (P24864 whole entry partner): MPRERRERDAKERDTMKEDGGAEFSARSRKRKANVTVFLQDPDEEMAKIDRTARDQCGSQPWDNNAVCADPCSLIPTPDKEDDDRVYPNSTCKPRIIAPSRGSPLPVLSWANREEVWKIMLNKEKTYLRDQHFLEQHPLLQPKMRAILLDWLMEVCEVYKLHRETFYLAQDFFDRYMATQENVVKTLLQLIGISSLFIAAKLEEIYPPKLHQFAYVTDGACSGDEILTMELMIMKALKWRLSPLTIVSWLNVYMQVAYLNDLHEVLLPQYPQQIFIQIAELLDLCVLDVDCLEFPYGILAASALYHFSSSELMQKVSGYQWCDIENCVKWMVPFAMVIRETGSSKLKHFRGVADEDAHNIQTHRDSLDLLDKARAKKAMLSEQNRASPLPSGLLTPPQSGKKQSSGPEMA

With `CN1CCN(Cc2ccc(NC(=O)Nc3ccc(Oc4ccnc(N)n4)cc3)cc2C(F)(F)F)CC1` [K03861] the inhibition at 10 µM ([1]; average) was 70.4%, the inhibition at 10 µM ([1]; experiment 1) was 66.2% and the inhibition at 10 µM ([1]; experiment 2) was 74.6%. It also gave an inhibition at 10 µM ([2]; experiment 1) of 40%, an inhibition at 10 µM ([2]; experiment 2) of 64.4% and an inhibition at 10 µM ([3]; average) of 23.7%. For the same compound, the inhibition at 10 µM ([3]; experiment 1) was 27.8%, the inhibition at 10 µM ([3]; experiment 2) was 19.6% and the IC50 ([4]; average (± SEM where n=3)) was 260 ± 70 nM. For the same compound, the IC50 ([4]; experiment 1) was 140 nM, the inhibition at 10 µM ([4]; experiment 1) was 74.3% and the IC50 ([4]; experiment 2) was 365 nM. It also gave an inhibition at 10 µM ([4]; experiment 2) of 80.7%, an IC50 ([4]; experiment 3) of 270 nM and an inhibition at 10 µM ([5]; average) of 35.2%. The inhibition at 10 µM ([5]; experiment 1) was 23.8%, the inhibition at 10 µM ([5]; experiment 2) was 46.5% and the IC50 ([6]; average (± SEM where n=3)) was 400 ± 100 nM. The inhibition at 10 µM ([6]; average) was 93.7%, the IC50 ([6]; experiment 1) was 144 nM and the inhibition at 10 µM ([6]; experiment 1) was 88.2%. The IC50 ([6]; experiment 2) was 408 nM, the inhibition at 10 µM ([6]; experiment 2) was 99.2% and the IC50 ([6]; experiment 3) was 610 nM. The inhibition at 10 µM ([7]; average) was 80.7%, the inhibition at 10 µM ([7]; experiment 1) was 82.9% and the inhibition at 10 µM ([7]; experiment 2) was 78.6%. For the same compound, the inhibition at 10 µM ([8]; average) was 36.6%, the inhibition at 10 µM ([8]; experiment 1) was 32.4% and the inhibition at 10 µM ([8]; experiment 2) was 40.8%. For the same compound, the IC50 ([9]; average (± SEM where n=3)) was 500 ± 100 nM, the IC50 ([9]; experiment 1) was 310 nM and the IC50 ([9]; experiment 2) was 530 nM. It also gave an IC50 ([9]; experiment 3) of 670 nM, an inhibition at 10 µM ([9]; average) of 79.8% and an inhibition at 10 µM ([9]; experiment 1) of 79.7%. The inhibition at 10 µM ([9]; experiment 2) was 79.9%, the IC50 ([10]; average (± SEM where n=3)) was 190 ± 60 nM and the inhibition at 10 µM ([10]; average) was 89.9%. It also gave an IC50 ([10]; experiment 1) of 80 nM, an inhibition at 10 µM ([10]; experiment 1) of 89.1% and an IC50 ([10]; experiment 2) of 281 nM. For the same compound, the inhibition at 10 µM ([10]; experiment 2) was 90.7%, the IC50 ([10]; experiment 3) was 200 nM and the inhibition at 10 µM ([11]; CDK8/C, average) was 95.6%. For the same compound, the IC50 ([11]; CDK8/C, experiment 1, read-out: IC50) was 2.1 nM, the inhibition at 10 µM ([11]; CDK8/C, experiment 1) was 96.7% and the IC50 ([11]; CDK8/C, experiment 2, read-out: IC50) was 5 nM. The inhibition at 10 µM ([11]; CDK8/C, experiment 2) was 94.5%, the IC50 ([11]; CDK8/C, experiment 3, read-out: IC50) was 2.2 nM and the IC50 ([11]; live HEK-293, 2 h, mean ± S.E.M. (n=3) or mean (n=2), read-out: IC50 for CDK/cyclin complexes, CDK8/C) was 3 nM. It also gave an inhibition at 10 µM ([12]; average) of 9.9%, an inhibition at 10 µM ([12]; experiment 1) of 15.5% and an inhibition at 10 µM ([12]; experiment 2) of 4.3%. It also gave an IC50 ([13]; IC50 (nM), CDK19/C, experiment 1) of 1.4 nM, an IC50 ([13]; IC50 (nM), CDK19/C, experiment 2) of 2.3 nM and an IC50 ([13]; IC50 (nM), CDK19/C, experiment 3) of 0.5 nM. The IC50 ([13]; IC50 (nM), CDK19/Y (so in the source), average (± SEM where n=3)) was 1.4 ± 0.5 nM, the IC50 ([13]; IC50 for CDK/cyclin complexes, CDK19/C, live HEK-293, 2 h, mean ± S.E.M. (n=3) or mean (n=2)) was 1.4 ± 0.5 nM and the inhibition at 10 µM ([13]; average) was 96.4%. The inhibition at 10 µM ([13]; experiment 1) was 95.5%, the inhibition at 10 µM ([13]; experiment 2) was 97.3% and the inhibition at 10 µM ([14]; average) was 85.1%. For the same compound, the inhibition at 10 µM ([14]; experiment 1) was 84.3%, the inhibition at 10 µM ([14]; experiment 2) was 85.8% and the inhibition at 10 µM ([15]; average) was 43.7%. The inhibition at 10 µM ([15]; experiment 1) was 39%, the inhibition at 10 µM ([15]; experiment 2) was 48.3% and the inhibition at 10 µM ([16]; average) was 14.5%. For the same compound, the inhibition at 10 µM ([16]; experiment 1) was 19.2%, the inhibition at 10 µM ([16]; experiment 2) was 9.8% and the inhibition at 10 µM ([17]; average) was 78.8%. For the same compound, the inhibition at 10 µM ([17]; experiment 1) was 79.9% and the inhibition at 10 µM ([17]; experiment 2) was 77.6%.

— paper PMC7265341, “Quantifying CDK inhibitor selectivity in live cells” (Nature Communications, 2020)
